Assay results from PubChem BioAssay (NCI).
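At the GI50, growth is halved. TGI denotes the concentration required for complete inhibition of growth.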

Tests used:
Assay in all cases: NCI tumour cell line growth inhibition, 384-well format
LOX IMVI melanoma = test system: LOX IMVI melanoma
RXF 393 renal = test system: RXF 393 renal
K-562 leukemia = test system: K-562 leukemia
SNB-19 CNS = test system: SNB-19 CNS
OVCAR-4 ovarian = test system: OVCAR-4 ovarian
SF-539 CNS = test system: SF-539 CNS
NCI-H322M lung = test system: NCI-H322M lung
M14 melanoma = test system: M14 melanoma
HOP-62 NSCLC = test system: HOP-62 NSCLC
MDA-MB-435 melanoma = test system: MDA-MB-435 melanoma
UO-31 renal = test system: UO-31 renal
CAKI-1 renal = test system: CAKI-1 renal
OVCAR-3 ovarian = test system: OVCAR-3 ovarian
SW-620 colon = test system: SW-620 colon
SK-MEL-2 melanoma = test system: SK-MEL-2 melanoma
SF-295 CNS = test system: SF-295 CNS
MCF7 breast = test system: MCF7 breast
OVCAR-5 ovarian = test system: OVCAR-5 ovarian
BT-549 breast = test system: BT-549 breast
SK-OV-3 ovarian = test system: SK-OV-3 ovarian
MDA-MB-231 breast = test system: MDA-MB-231 breast
HL-60(TB) leukemia = test system: HL-60(TB) leukemia
ACHN renal = test system: ACHN renal
MDA-MB-468 breast = test system: MDA-MB-468 breast
TK-10 renal = test system: TK-10 renal
SF-268 CNS = test system: SF-268 CNS
SK-MEL-5 melanoma = test system: SK-MEL-5 melanoma
SK-MEL-28 melanoma = test system: SK-MEL-28 melanoma
COLO 205 colon = test system: COLO 205 colon
NCI-H460 NSCLC = test system: NCI-H460 NSCLC
KM12 colon = test system: KM12 colon
NCI-H23 lung = test system: NCI-H23 lung
RPMI-8226 leukemia = test system: RPMI-8226 leukemia
HCT-116 colon = test system: HCT-116 colon
DU-145 prostate = test system: DU-145 prostate
UACC-62 melanoma = test system: UACC-62 melanoma
CCRF-CEM leukemia = test system: CCRF-CEM leukemia
PC-3 prostate = test system: PC-3 prostate
786-0 renal = test system: 786-0 renal
T-47D breast = test system: T-47D breast
UACC-257 melanoma = test system: UACC-257 melanoma
SN12C renal = test system: SN12C renal
HCT-15 colon = test system: HCT-15 colon
A549 NSCLC = test system: A549 NSCLC
MOLT-4 leukemia = test system: MOLT-4 leukemia
HCC-2998 colon = test system: HCC-2998 colon
OVCAR-8 ovarian = test system: OVCAR-8 ovarian
NCI/ADR-RES ovarian = test system: NCI/ADR-RES ovarian
A498 renal = test system: A498 renal
HOP-92 NSCLC = test system: HOP-92 NSCLC
U251 glioblastoma = test system: U251 glioblastoma
HT29 colon = test system: HT29 colon
SR leukemia = test system: SR leukemia
NCI-H522 lung = test system: NCI-H522 lung
NCI-H226 lung = test system: NCI-H226 lung
MALME-3M melanoma = test system: MALME-3M melanoma

Compound: CCN1C(C)(C)CC(Oc2ccc(C(=O)Nc3ccc(NC(=O)Nc4cc(C(C)(C)C)on4)cc3)nc2)CC1(C)C
- GI50 (LOX IMVI melanoma): 1.86 µM
- TGI (LOX IMVI melanoma): 3.27 µM
- GI50 (RXF 393 renal): 0.384 µM
- TGI (RXF 393 renal): 1.47 µM
- GI50 (K-562 leukemia): 1.6 µM
- TGI (K-562 leukemia): 2.97 µM
- GI50 (SNB-19 CNS): 1.98 µM
- TGI (SNB-19 CNS): 3.48 µM
- GI50 (OVCAR-4 ovarian): 1.56 µM
- TGI (OVCAR-4 ovarian): 3.77 µM
- GI50 (SF-539 CNS): 1.3 µM
- TGI (SF-539 CNS): 2.58 µM
- GI50 (NCI-H322M lung): 2.02 µM
- TGI (NCI-H322M lung): 4.14 µM
- GI50 (M14 melanoma): 1.71 µM
- TGI (M14 melanoma): 3.09 µM
- GI50 (HOP-62 NSCLC): 1.88 µM
- TGI (HOP-62 NSCLC): 3.34 µM
- GI50 (MDA-MB-435 melanoma): 2 µM
- TGI (MDA-MB-435 melanoma): 3.44 µM
- GI50 (UO-31 renal): 1.76 µM
- TGI (UO-31 renal): 3.21 µM
- GI50 (CAKI-1 renal): 1.62 µM
- TGI (CAKI-1 renal): 3.22 µM
- GI50 (OVCAR-3 ovarian): 1.69 µM
- TGI (OVCAR-3 ovarian): 3.1 µM
- GI50 (SW-620 colon): 1.94 µM
- TGI (SW-620 colon): 3.38 µM
- GI50 (SK-MEL-2 melanoma): 1.25 µM
- TGI (SK-MEL-2 melanoma): 2.5 µM
- GI50 (SF-295 CNS): 1.84 µM
- TGI (SF-295 CNS): 3.25 µM
- GI50 (MCF7 breast): 1.55 µM
- TGI (MCF7 breast): 2.91 µM
- GI50 (OVCAR-5 ovarian): 2.08 µM
- TGI (OVCAR-5 ovarian): 3.84 µM
- GI50 (BT-549 breast): 1.55 µM
- TGI (BT-549 breast): 2.9 µM
- GI50 (SK-OV-3 ovarian): 1.71 µM
- TGI (SK-OV-3 ovarian): 3.1 µM
- GI50 (MDA-MB-231 breast): 1.77 µM
- TGI (MDA-MB-231 breast): 3.23 µM
- GI50 (HL-60(TB) leukemia): 2.51 µM
- TGI (HL-60(TB) leukemia): 5.71 µM
- GI50 (ACHN renal): 1.75 µM
- TGI (ACHN renal): 3.2 µM
- GI50 (MDA-MB-468 breast): 2.03 µM
- TGI (MDA-MB-468 breast): 3.56 µM
- GI50 (TK-10 renal): 1.92 µM
- TGI (TK-10 renal): 3.87 µM
- GI50 (SF-268 CNS): 1.68 µM
- TGI (SF-268 CNS): 3.11 µM
- GI50 (SK-MEL-5 melanoma): 1.52 µM
- TGI (SK-MEL-5 melanoma): 2.86 µM
- GI50 (SK-MEL-28 melanoma): 1.58 µM
- TGI (SK-MEL-28 melanoma): 2.94 µM
- GI50 (COLO 205 colon): 1.79 µM
- TGI (COLO 205 colon): 3.2 µM
- GI50 (NCI-H460 NSCLC): 1.8 µM
- TGI (NCI-H460 NSCLC): 3.24 µM
- GI50 (KM12 colon): 1.74 µM
- TGI (KM12 colon): 3.14 µM
- GI50 (NCI-H23 lung): 3.33 µM
- TGI (NCI-H23 lung): 8.85 µM
- GI50 (RPMI-8226 leukemia): 0.654 µM
- TGI (RPMI-8226 leukemia): 1.75 µM
- GI50 (HCT-116 colon): 1.63 µM
- TGI (HCT-116 colon): 3.01 µM
- GI50 (DU-145 prostate): 1.88 µM
- TGI (DU-145 prostate): 3.49 µM
- GI50 (UACC-62 melanoma): 1.87 µM
- TGI (UACC-62 melanoma): 3.29 µM
- GI50 (CCRF-CEM leukemia): 1.8 µM
- TGI (CCRF-CEM leukemia): 3.2 µM
- GI50 (PC-3 prostate): 1.95 µM
- TGI (PC-3 prostate): 3.5 µM
- GI50 ([…]-0 renal): 1.52 µM
- TGI (786-0 renal): 2.87 µM
- GI50 (T-47D breast): 1.43 µM
- TGI (T-47D breast): 2.79 µM
- GI50 (UACC-257 melanoma): 1.33 µM
- TGI (UACC-257 melanoma): 2.61 µM
- GI50 (SN12C renal): 1.71 µM
- TGI (SN12C renal): 3.09 µM
- GI50 (HCT-15 colon): 1.61 µM
- TGI (HCT-15 colon): 2.99 µM
- GI50 (A549 NSCLC): 1.83 µM
- TGI (A549 NSCLC): 3.32 µM
- GI50 (MOLT-4 leukemia): 1.67 µM
- TGI (MOLT-4 leukemia): 3.06 µM
- GI50 (HCC-2998 colon): 1.6 µM
- TGI (HCC-2998 colon): 2.98 µM
- GI50 (OVCAR-8 ovarian): 1.77 µM
- TGI (OVCAR-8 ovarian): 3.19 µM
- GI50 (NCI/ADR-RES ovarian): 1.82 µM
- TGI (NCI/ADR-RES ovarian): 3.72 µM
- GI50 (A498 renal): 1.6 µM
- TGI (A498 renal): 3.02 µM
- GI50 (HOP-92 NSCLC): 1.65 µM
- TGI (HOP-92 NSCLC): 3.16 µM
- GI50 (U251 glioblastoma): 1.65 µM
- TGI (U251 glioblastoma): 3.03 µM
- GI50 (HT29 colon): 0.832 µM
- TGI (HT29 colon): 2.09 µM
- GI50 (SR leukemia): 1.29 µM
- TGI (SR leukemia): 2.57 µM
- GI50 (NCI-H522 lung): 1.77 µM
- TGI (NCI-H522 lung): 3.16 µM
- GI50 (NCI-H226 lung): 1.68 µM
- TGI (NCI-H226 lung): 3.08 µM
- GI50 (MALME-3M melanoma): 1.41 µM
- TGI (MALME-3M melanoma): 2.72 µM
